Test results from paper PMC9327782, “Benzoxazole derivatives as new VEGFR-2 inhibitors and apoptosis inducers: design, synthesis, in silico studies, and antiproliferative evaluation” (Journal of Enzyme Inhibition and Medicinal Chemistry, 2022).
Where two headings read alike, the source gives them in different places.

Experiments:
HepG2 cell line = test: In vitro anti-proliferative MTT assay, HepG2; type: cell-based, human; conditions: Homo sapiens
Excerpt: (§1) The cytotoxicity results were obtained as median growth inhibitory concentration (IC50).
(§2) MTT assay protocol. This method was applied in accordance with the comprehensive description in Supplementary data. […]
(§3) 5 Raw data of cytotoxity and VEGFR -2 assay […]
(§4) Experimental of biological testing
(§5) 1. In vitro anti-proliferative activity
(§6) MTT assay protocol was applied to assess the anti-proliferative activity of the synthesized compounds. Two human cancer cell lines (MCF-7 and HepG-2) and one normal cell line (WI-38) were used in this test. At first, the cell lines were cultured in RPMI -1640 medium with 10% fetal bovine serum. Antibiotics (100 units/ml penicillin and100 µg/ml streptomycin ) were added at 37 °C in a 5% CO2 incubator. The cell lines were seeded in a 96-well plate at a density of 1.0 x 10^4 cells / well at 37 °C for 24 h under 5% CO2. After incubation, the cells were treated with different […]
(§7) concentration of the synthesized compounds and incubated for 24 h. After 24 h of drug treatment, 20 µl of MTT solution at 5mg/ml was added and incubated for 4 h. Dimethyl sulfoxide (DMSO) in volume of 100 µl was added into each well to dissolve the purple formazan formed. The colorimetric assay was measured and recorded at absorbance of 570 nm using a plate reader (EXL 800, USA). The relative cell viability in percentage was calculated as (A570 of treated samples/A570 of untreated sample) X 100. […]

MCF-7 cell line = test: In vitro anti-proliferative MTT assay, MCF-7; type: cell-based, human; conditions: Homo sapiens
Excerpt: as §1, §2, §3, §4, §5, §6, §7

VEGFR-2 = biological target: T1, VEGFR-2 (Homo sapiens, UniProt P35968); test: In vitro VEGFR-2 kinase assay (ELISA kit); type: biochemical
T1 construct: purchased
T1 sequence (P35968 20-1356): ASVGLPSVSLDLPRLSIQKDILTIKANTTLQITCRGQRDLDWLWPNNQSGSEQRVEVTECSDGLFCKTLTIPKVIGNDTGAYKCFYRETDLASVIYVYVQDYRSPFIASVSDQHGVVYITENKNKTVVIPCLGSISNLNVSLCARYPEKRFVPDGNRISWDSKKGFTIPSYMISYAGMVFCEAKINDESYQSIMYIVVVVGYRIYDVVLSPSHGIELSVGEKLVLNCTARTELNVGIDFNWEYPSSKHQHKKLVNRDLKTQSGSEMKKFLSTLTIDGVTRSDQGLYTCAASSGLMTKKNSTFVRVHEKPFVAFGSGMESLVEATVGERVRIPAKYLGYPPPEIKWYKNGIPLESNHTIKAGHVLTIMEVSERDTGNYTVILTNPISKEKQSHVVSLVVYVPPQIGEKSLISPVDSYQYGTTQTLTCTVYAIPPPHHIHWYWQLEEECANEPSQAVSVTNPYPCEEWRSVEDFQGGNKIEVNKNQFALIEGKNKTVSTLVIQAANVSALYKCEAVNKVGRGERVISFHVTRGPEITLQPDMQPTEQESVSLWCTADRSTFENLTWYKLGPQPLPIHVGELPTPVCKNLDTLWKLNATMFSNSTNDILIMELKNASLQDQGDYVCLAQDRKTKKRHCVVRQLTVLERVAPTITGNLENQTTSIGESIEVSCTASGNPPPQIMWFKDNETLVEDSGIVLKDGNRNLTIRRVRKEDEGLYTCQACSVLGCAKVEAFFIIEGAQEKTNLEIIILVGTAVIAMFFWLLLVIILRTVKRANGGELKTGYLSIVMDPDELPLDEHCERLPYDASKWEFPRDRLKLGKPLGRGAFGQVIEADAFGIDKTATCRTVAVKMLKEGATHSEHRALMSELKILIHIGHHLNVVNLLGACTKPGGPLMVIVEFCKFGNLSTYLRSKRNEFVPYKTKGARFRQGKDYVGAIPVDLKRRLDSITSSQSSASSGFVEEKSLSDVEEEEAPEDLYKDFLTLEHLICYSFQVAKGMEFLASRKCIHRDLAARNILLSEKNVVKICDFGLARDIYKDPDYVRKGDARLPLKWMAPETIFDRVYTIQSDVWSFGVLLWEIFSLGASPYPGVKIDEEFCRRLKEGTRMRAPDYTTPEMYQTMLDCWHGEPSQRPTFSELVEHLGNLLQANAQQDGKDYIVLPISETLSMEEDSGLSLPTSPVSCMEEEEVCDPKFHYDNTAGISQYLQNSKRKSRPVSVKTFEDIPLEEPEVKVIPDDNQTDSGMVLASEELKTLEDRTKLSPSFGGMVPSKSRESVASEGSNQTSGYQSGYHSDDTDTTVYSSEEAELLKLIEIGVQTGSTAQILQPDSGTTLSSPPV
Procedure: The assay was applied by ELISA kits in accordance with the comprehensive description in[18]^,[33] as described in Supplementary data. […]
2. In vitro VEGFR-2 kinase assay
All the synthesized compounds were tested for its inhibitory activity against VEGFR-2. Human VEGFR-2 ELISA kit (Enzyme-Linked Immunosorbent Assay) was utilized in this test. At first, specific antibody for VEGFR-2 was seeded on a 96-well plate and 100 μL of the standard solution or the tested compound was added, all were incubated at room temperature for 2.5 h. Then washed, 100 μL of the prepared biotin antibody was added, then incubated at room temperature for additional 1 h. and washed. Then, 100 μL of streptavidin solution was added and incubated for 45 min. at room temperature. Washed again, 100 μL of TMB Substrate reagent was added and incubated for 30 min. at room temperature. 50 μL of the stop solution was added, then read at 450 […]
nm immediately. […]

HepG2 cells = test: Flow cytometry apoptosis analysis (Annexin V/PI); type: cell-based, human
Procedure: In details, 32.45 and 2.86% for early and late apoptotic phases, respectively compared to control, (6.56%,5.34%,1.22%, respectively) (Figure 5 and Table 5).
Apoptotic effect was applied in accordance with the comprehensive description in Supplementary data[36]^,[37]
4. Flow cytometry analysis for apoptosis
Flow cytometry cell apoptosis analysis was used to investigate the apoptotic effect of the synthesized compounds. HepG2 cells were treated with compound 12l (10.50 µM) for 24 h, collected by trypsin, centrifuged, washed two successive times with PBS, suspended in 500 μl binding buffer, and double stained with 5 μl Annexin V-FITC and 5 μl PI in the dark at room temperature for 15 min. The stained cells were measured using Epics XL-MCL™ Flow Cytometer and analyzed using Flowing software. […]

Bcl-2 = test: Western blot, Bcl-2 level in HepG2 cells; type: cell-based, human; conditions: HepG2, 24 h
Procedure: Compound 12lwas subjected to further cellular mechanistic study. The cellular levels of BAX and Bcl-2 were measured using the western blot technique after compound 12l was applied to HepG2 cells for 24 h.
The western blot technique was applied in accordance with the comprehensive description in Supplementary data[38–40] […]
The proteins expression of cleaved caspase‐3, BAX, and Bcl‐2 were determined using Western blot analysis. In brief, HepG2 cells were treated with control, or with the synthesized compounds.
Then cells were lysed in 250 μL precold lysis buffer (pH 7.4: Tris‐Base [10 mM], NaCl [100 mM], ethylenediaminetetraacetic acid [EDTA, 25 mM], ethylene glycol bis (2‐aminoethyl) tetraacetic acid [EGTA, 25 mM], 1% [v/v] NP‐40, and 1% [v/v] Triton X‐100) supplemented with 1:350 protease:phosphatase inhibitors cocktail (Sigma). The cells were immediately frozen at −20°C for 1.5 hours for further lysis, collected by cell scraper, sonicated 3 × 10 seconds, and centrifuged (13000 rpm, 15 minutes). Total protein concentrations in the supernatant were determined colorimetrically using the Pierce 660 nm Protein Assay method (Thermo Fisher Scientific, Rockford, IL), with BSA as the standard. […]

[1] = HepG2, 24 h, mean ± SEM of two experiments

IC50 (HepG2 cell line; HepG2, 24 h, MTT, 24 h treatment, mean of three experiments, read-out: In vitro IC50 HepG2): 10.5 ± 0.8 µM | IC50 (HepG2 cell line; HepG2, supplement raw data, dose-response curve fit, read-out: LogIC50 best-fit value, HepG2 (converted)): 10.5 µM | IC50 (MCF-7 cell line; MCF7, 24 h, MTT, 24 h treatment, mean of three experiments, read-out: In vitro IC50 MCF-7): 15.2 ± 1.1 µM | IC50 (MCF-7 cell line; MCF7, supplement raw data, dose-response curve fit, read-out: LogIC50 best-fit value, MCF-7 (converted)): 15.2 µM | IC50 (VEGFR-2; ELISA kit): 0.0974 µM | HillSlope best-fit value, VEGFR-2 (VEGFR-2; supplement raw data, curve fit): -0.4614 | LogIC50 best-fit value, VEGFR-2 (VEGFR-2; supplement raw data, curve fit): 1.988 Log (nM)
SMILES: Cc1ccc2oc(SCC(=O)Nc3ccc(C(=O)Nc4cccc(Cl)c4)cc3)nc2c1 [Compound 12l, N-(3-Chlorophenyl)-4–(2-((5-methylbenzo[d]oxazol-2-yl)thio)acetamido)benzamide]
Early apoptotic phase (HepG2 cells; HepG2, 10.50 µM, 24 h): 32.45% | Late apoptotic phase (HepG2 cells; HepG2, 10.50 µM, 24 h): 2.86% | Apoptosis Early (Right Bottom) (HepG2 cells; [1]): 32.45 ± 3.13 | Apoptosis Late (Right Top) (HepG2 cells; [1]): 2.86 ± 0.21 | Necrosis (Left Top) (HepG2 cells; [1]): 0.14 ± 0.06 | Viable (Left Bottom) (HepG2 cells; HepG2, 24 h, mean ± SEM of two experiments, in %): 64.55 ± 3.43 | Protein expression (normalized to β-actin) Bcl-2 (Bcl-2; control = 1.00): 0.47 ± 0.05 | Bcl-2 level decrease (Bcl-2; versus control): 2.12 fold
